Reference: patent publication US20150196022A1, “ABSORBENT PAD HAVING THREE OR MORE MODULES TO ENHANCE PRESERVATION OF FLOWERS” (Paper-Pak Industries, priority 2014, published 2015)

Experiment: Na2S2O5 in an open environment: SO2 concentration in air measured daily
Format: physicochemical
Description: FIG. 12A and FIG. 12B show the results of a test that was performed to establish how Na2S2O5 reacts with the environment, and the effect of changes in relative humidity.
0.1 g of Na2S2O5 on sampling “boats” were placed on top of a counter; i.e., in an “open” environment. The concentration of SO2 gas (in parts per million, ppm) in the air at about 2.5 cm (about 1″) above the Na2S2O5 was measured daily for more than 50 days of testing. The relative humidity was also measured for each day of testing.
This is in agreement with the known chemistry of Na2S2O5.

average SO2 concentration generated (0.1 g Na2S2O5, open environment, about 2.5 cm above sample, up to 50 days): 0.5 ppm | duration of continuous SO2 generation (summary of the several tests): more than 50 days
Compound: O=S([O-])S(=O)(=O)[O-].[Na+].[Na+] [Na2S2O5, sodium metabisulfite]
